Experimental findings from patent publication US8101213B2, “Xanthohumol compositions and methods of using same” (The University of Georgia Research Foundation, Inc, priority 2007, dated 2012) are described below.

Structures are written as SMILES. Read-outs that look alike come from different tables or passages of the source.

One data set has as its system cytochrome c. Briefly: Cytochrome c release from mitochondria (Western blot). The note with it: compound alone at 50 μM. In kind it is cell-based, mouse. How it is done: (§1) Western blot analysis. Following the indicated treatment, whole cell extracts were prepared by washing the cells with phosphate buffered saline (PBS) and suspending the cells in a lysis buffer (20 mM Tris, pH 7.5, 150 mM sodium chloride, 1 mM EDTA, 1 mM EGTA, 1% Triton X-100, 2.5 mM sodium pyrophosphate, 1 mM β-glycerophosphate, 1 mM sodium vanadate (Na3VO4), 1 μg/ml aprotinin, 1 μg/ml leupeptin, and 100 μg/ml phenylmethylsulfonyl fluoride). After 30 min of rocking at 4° C., the mixtures were centrifuged (10,000×g) for 10 min, and the supernatants were collected as whole-cell extracts. […] The protein concentration was determined by the method of Bradford with bovine serum albumin as the standard. […] Samples were heated to 70° C. for 10 min, separated by 12% acrylamide gels, and analyzed by immunoblotting. […]
(§2) Quantitative analysis of Western blot data. […] For statistical analysis, all data were expressed as integrated density values (IDV). For PARP, Bcl-2, and cytochrome c, IDVs were calculated as the density values of the specific protein bands/β-actin density values and expressed as percentage of the control.
(§3) Effects of XN and HK cytochrome c release from mitochondria and PARP cleavage in mature adipocytes. To further investigate whether XN and HK affects the intrinsic apoptosis induction pathway, the induction of cytochrome c release was evaluated by Western blotting.
For orientation: Immunoblotting shows a protein as a band on a membrane.

Another data set concerns caspase-3/7. Briefly: Caspase-3 and 7 activity assay (Caspase-Glo 3/7) in mature adipocytes. The format is cell-based, mouse. The conditions noted are these: for caspase-3/7 activity: individual compound, XN 25, 50 μM, HK 25, 50, 75 μM, 12 h. How it is done:
Caspase-3 and 7 activity assay. Adipocytes were incubated with DMSO or the test compounds and the indicated times and concentrations. Thereafter, 100 μl of caspase-Glo 3/7 reagent (Promega, Madison, Wis.) was added to each sample and the cells were incubated for 1 h and assayed according to the manufacturer's instructions.
Effects of XN and HK on caspase-3/−7 activation and PARP cleavage. To confirm apoptosis in response to combined treatment with XN and HK, the activity of caspase-3/7 was evaluated.
The caspases 3/7 activity was measured using a commercially available Caspase Glo 3/7 assay kit (Promega, Madison, Wis.), as described in Example 1.

The subject of data set [1] is mature adipocytes (3T3-L1). Briefly: Cell viability assay (MTS) in mature adipocytes. The conditions noted are these: for effect on cell viability: compound alone at 25 and 50 μM; for effect on viability of mature adipocytes: individual compound, 24 and 48 h.
Method: (§5) 3T3-L1 mouse fibroblast were obtained from American Type Culture Collection (Manassas, Va.) and were cultured in Dulbecco's modified Eagle's medium (DMEM) (GIBCO, Grand Island, N.Y.) containing 10% bovine calf serum (BCS) until confluent. Two days after confluency, the cells were stimulated to differentiate with an induction medium (hereinafter “MDI”), which comprises DMEM containing 10% FBS, 167 nM insulin (Sigma), 0.5 μg of isobutylmethylxanthine (IBMX) (Sigma), and 1 μm of dexamethasone (Sigma) for two (2) days. Cells were then maintained on 10% FBS/DMEM with 167 nM insulin for another 2 days, followed by culturing with FBS/DMEM for an additional four days, at which time more than 90% of cells were mature adipocytes with accumulated fat droplets. All media contained 100 U/ml of penicillin, 100 μg/ml of streptomycin, and 292 μg/ml of glutamine. Cells were maintained at 37° C. in a 5% CO2 humidified environment.
(§6) Cell viability assay. Adipocytes were incubated with dimethyl sulfoxide (DMSO) (0.02%) or test compounds. Prior to measuring viability, treatment media were removed and replaced with 100 μl fresh 10% FBS/DMEM medium and 20 μl MTS solution (Promega, Madison, Wis.). Cells were then returned to the incubator for an additional 2 h before 25 μl of 10% sodium dodecyl sulfate (SDS) was added to stop the reaction. The absorbance was measured at 490 nm in a plate reader (μQuant Bio-Tek Instruments, Inc. Winooski, Vt.) to determine the formazan concentration, which is proportional to the number of live cells.
(§7) Adipocytes were treated with XN (25, 50 μM) and HK (25, 50, 75 μM) as individual compounds or in combination for 12, 24, and 48 h. After treatment, cell viability was determined by the MTS assay, as described in Example 1.
(§8) Adipocytes were treated with XN (25, 50 μM) and G (50, 100 μM) as individual compounds or in combination for 24 and 48 h. After treatment, cell viability was determined by the MTS assay, as described in Example 1.
(§9) Adipocytes were treated with XN (25, 50, 75 μM) and GS (25, 50, 75 μM) as individual compounds or in combination for 24 and 48 h. After treatment, cell viability was determined by the MTS assay, as described in Example 1.
Another data set deals with 3T3-L1 pre-adipocytes. Briefly: Adipogenesis: lipid content (AdipoRed) during maturation of pre-adipocytes. In kind it is cell-based, mouse. The note with it: compound alone, days 0-6 of differentiation. How it is done: Quantification of lipid content and oil red O staining. Lipid content was measured using a commercially available kit (AdipoRed Assay Reagent; Cambrex Bio Science, Walkersville, Inc.). Briefly, test compositions and a 0.01% DMSO control were added with the induction medium for days 0-6 of adipogenesis. Medium was changed every 2 days. On day 6, intracellular lipid content was measured by AdipoRed Assay. Cells were washed with PBS (pH 7.4) and 200 μl of PBS was added to the wells. About 5 μl of AdipoRed reagent was added to each well. After 10 min, the plates were placed in the fluorometer and fluorescence was measured with excitation wavelength of 485 nm and emission wavelength of 572 nm. To visualize lipid content, treated cells were stained with oil red O and hematoxylin as described by Suryawan and Hu. After mounting with glycerol gelatin, three images for each dish were captured using ImagePro software (MediaCybernetics, Silver Spring, Md.).
Effects of XN and HK on adipogenesis of post-confluent pre-adipocytes during maturation. Post-confluent pre-adipocytes were induced to differentiate for 0-6 days in differentiation medium with or without XN or HK for indicated times. […]
To determine the synergistic effects of XN and GS on adipogenesis, the effect of XN and GS on inhibiting lipid accumulation in (FIG. 15A) and viability of (FIG. 15B) maturing 3T3-L1 adipocytes was determined.

The test system of data set [2] is mature adipocytes (3T3-L1). Briefly: Apoptosis assay (ApoStrand ELISA, single stranded DNA) in mature adipocytes. In kind it is cell-based, mouse. The note with it: for effect on apoptosis: compound alone at 25 and 50 μM; for % Increase in apoptosis mean ± s.e.m.: mature adipocytes, concentration (μM) is the number in the treatment label; for increased apoptosis, alone: XN or GS alone; for effect on apoptosis of mature adipocytes (ssDNA): individual compound, XN e.g. 50 μM at 48 hrs. How it is done: Apoptosis assays. For the assessment of apoptosis, the ApoStrand ELISA Apoptosis Detection Kit (Biomol, Plymouth Meeting, Pa.) was used. This kit detects single stranded DNA, which occurs in apoptotic cells but not in necrotic cells or in cells with DNA breaks in the absence of apoptosis. Adipocytes were incubated with DMSO or the test compounds for the indicated times and at the indicated concentrations. Thereafter, treatment media was removed and the cells were fixed for 30 min and assayed according to the manufacturer's instructions.
The enhanced reduction in cell viability by XN plus HK was evaluated to determine if the reduction in cell viability was attributable to apoptosis.
The effects of XN and G on mature adipocytes apoptosis were investigated by measuring the changes of the levels of single strained DNA (ssDNA) in the cells.
(§4) The enhanced reduction in cell viability by XN plus GS was evaluated to determine if the reduction in cell viability was attributable to apoptosis.
(ELISA stands for enzyme-linked immunosorbent assay.)

Data set [3] concerns Poly (ADP-ribose) polymerase (PARP). Briefly: PARP cleavage in mature adipocytes (Western blot). The note with it: compound alone. The format is cell-based, mouse. How it is done: as §1, §2, §3
Data set [4] has as its system mature adipocytes (3T3-L1). The note with it: mouse, 48 h.
Method: as §5, §6, §7, §8, §9
Data set [5] has as its system mature adipocytes. Briefly: Lipolysis in mature adipocytes. The format is cell-based, mouse. The conditions noted are these: for lipolysis: XN or GS alone, 12 h incubation. How it is done: Effects of XN and HK on lipolysis in mature adipocytes. Mature adipocytes were incubated with either control or test compounds for indicated times.
The next data set has as its system Bcl-2 protein. Briefly: Bcl-2 protein expression (Western blot). The note with it: compound individually. The format is cell-based, mouse. How it is done:
as §1, §2
To further investigate whether XN and GS affects the intrinsic apoptosis induction pathway, the expression of the anti-apoptotic Bcl-2 protein was evaluated by western blotting.

Data set [6] deals with mature adipocytes. Briefly: Lipid content of mature adipocytes after 7-day treatment. In kind it is cell-based, mouse. The note with it: individual compound, XN 6 μM and 12 μM, GS 12 μM and 25 μM, seven days.
Data set [7] has as its system mature adipocytes. Briefly: Hoechst staining of mature adipocytes. In kind it is cell-based, mouse. The note with it: XN or GS alone. How it is done:
as §4

Take `C=CCc1ccc(O)c(-c2ccc(O)c(CC=C)c2)c1` [HK, Honokiol]: the “effect on cytochrome c release” value in the data set on cytochrome c is given as “neither 50 μM of XN nor 50 μM of HK had an effect”. The caspase-3/7 activity result in the data set on caspase-3/7 is on record as “increased caspase-3/7 activity in a dose-dependent manner”. In addition, the cytotoxicity at 75 µM in data set [1] (Mus musculus, 3T3-L1, 48 h, read-out: decreased cell viability) was determined as 9.1 ± 2.5%. For the same molecule, the “effect on cell viability” value in data set [1] (48 h) is listed as “no effect”. In addition, the “lipid accumulation during maturation” value in the data set on 3T3-L1 pre-adipocytes is “increased lipid accumulation”. Besides, in data set [2] (alone at 75 μM, 24 h, P<0.05), the increased apoptosis is recorded as 70.4±15.9%. For the same molecule, the effect on apoptosis result in [2] (24 h) was “no effect”. For the same molecule, the “% Increase in apoptosis mean ± s.e.m.” value was 10.8 ± 5.9% in [2] (24 h, listed as HK50) and 70.4 ± 15.9% in data set [2] (24 h, listed as HK75). In addition, the “effect on PARP cleavage” value in data set [3] was “neither compound alone may affect”. For the same molecule, the “% Decrease in viability mean ± s.e.m.” value in data set [4] was −1.8 ± 1.5%.
The molecule `COc1cc(O)c(CC=C(C)C)c(O)c1C(=O)/C=C/c1ccc(O)cc1` [XN, Xanthohumol] had an increase in lipolysis with mature adipocytes [5] (XN 50 μM alone) of 20%. Besides, in the data set with mature adipocytes [5], the lipolysis entry is “increased lipolysis slightly”. Moreover, the “effect on cytochrome c release” value in the data set with cytochrome c was “neither 50 μM of XN nor 50 μM of HK had an effect”. For the same molecule, the caspase-3/7 activity entry in the data set on caspase-3/7 is reported as “increased caspase-3/7 activity in a dose-dependent manner”. For the same molecule, in the data set with Bcl-2 protein, the Bcl-2 protein level entry is recorded as “decreased Bcl-2”. The “effect on cell viability” value in data set [1] (48 h) is “no effect”. The “effect on viability of mature adipocytes” value in [1] (XN 25, 50 μM, G 50, 100 μM) is “decreased the viability of mature adipocytes in a dose-dependent and time-dependent manner”. Besides, the “effect on viability of mature adipocytes” value in data set [1] (XN or GS 25, 50, 75 μM) was “decreased the viability of mature adipocytes in a dose-dependent and time-dependent manner”. Moreover, in data set [1] (mature adipocytes, 48 h, concentration (μM) is the number in the treatment label), the “% Decrease in viability mean ± s.e.m.” value was −2.8 ± 1.5%. Further, in the data set on mature adipocytes [6], the “lipid accumulation in mature adipocytes” value was “decreased lipid accumulation”. Further, the “lipid accumulation during maturation” value in the data set with 3T3-L1 pre-adipocytes was “decreased lipid accumulation”. In addition, the “Hoechst staining, individual treatments” value in the data set with mature adipocytes [7] is reported as “small increase in staining”. Further, in data set [2], the “increased apoptosis, alone” value is recorded as “about 20%” and the “effect on apoptosis of mature adipocytes (ssDNA)” value is recorded as “increased apoptosis”. Besides, in [2] (24 h), the effect on apoptosis entry is on record as “no effect” and the “% Increase in apoptosis mean ± s.e.m.” value came to 51.0 ± 16.5%. Moreover, the “effect on PARP cleavage” value in data set [3] is on record as “neither compound alone may affect”.
As for `C/C=C1\C(=O)C[C@H]2[C@@H]3CCC4=CC(=O)CC[C@]4(C)[C@H]3CC[C@]12C` [GS, Guggulsterone], the lipolysis result with mature adipocytes [5] was “increased lipolysis slightly”. Also, in the data set on caspase-3/7 (GS alone at 75 μM), the “caspase 3/7 activity” value is recorded as “increased caspase activity”. Besides, the Bcl-2 protein level entry with Bcl-2 protein was “decreased Bcl-2”. Also, the “effect on viability of mature adipocytes” value in data set [1] (XN or GS 25, 50, 75 μM) was “decreased the viability of mature adipocytes in a dose-dependent and time-dependent manner”. Also, the “lipid accumulation in mature adipocytes” value in the data set with mature adipocytes [6] is reported as “decreased lipid accumulation”. Moreover, the “Hoechst staining, individual treatments” value in the data set with mature adipocytes [7] is recorded as “small increase in staining”. Also, in data set [2], the “increased apoptosis, alone” value was “about 20%”.
For `O=c1c(-c2ccc(O)cc2)coc2cc(O)cc(O)c12` [G, 4,5,7-trihydroxyisoflavone], the “effect on viability of mature adipocytes” value in data set [1] (XN 25, 50 μM, G 50, 100 μM) was “did not affect the viability”. Besides, the “effect on apoptosis of mature adipocytes (ssDNA)” value in data set [2] was “did not affect apoptosis”.
